Source: PubChem BioAssay (NCI)
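All cell lines were grown in 96-well plates and treated with compound for 48 hours. Abbreviation: GI50, concentration required for 50% inhibition of growth. TGI is the concentration that stops growth completely.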

Columns and labels:
Test in all cases: inhibition of tumour cell growth, NCI panel, 48 h
[1] = system: MOLT-4 leukemia
[2] = system: A549 NSCLC
[3] = system: SNB-19 CNS
[4] = system: SR leukemia
[5] = system: LOX IMVI melanoma
[6] = system: M14 melanoma
[7] = system: NCI-H23 lung
[8] = system: OVCAR-4 ovarian
[9] = system: SK-MEL-28 melanoma
[10] = system: CAKI-1 renal
[11] = system: COLO 205 colon
[12] = system: SW-620 colon
[13] = system: SN12C renal
[14] = system: TK-10 renal
[15] = system: HCT-116 colon
[16] = system: KM12 colon
[17] = system: RXF 393 renal
[18] = system: SF-295 CNS
[19] = system: HCT-15 colon
[20] = system: NCI-H460 lung
[21] = system: ACHN renal
[22] = system: CCRF-CEM leukemia
[23] = system: RPMI-8226 leukemia
[24] = system: HT29 colon
[25] = system: HOP-62 NSCLC
[26] = system: NCI-H226 lung
[27] = system: 786-0 renal
[28] = system: A498 renal
[29] = system: DU-145 prostate
[30] = system: UO-31 renal
[31] = system: EKVX NSCLC
[32] = system: SK-MEL-5 melanoma
[33] = system: SF-268 CNS
[34] = system: SK-OV-3 ovarian
[35] = system: OVCAR-5 ovarian
[36] = system: UACC-257 melanoma
[37] = system: SF-539 CNS
[38] = system: U251 CNS
[39] = system: BT-549 breast
[40] = system: HCC-2998 colon
[41] = system: T-47D breast
[42] = system: NCI/ADR-RES ovarian
[43] = system: NCI-H522 lung
[44] = system: SNB-75 CNS
[45] = system: MDA-MB-231 breast
[46] = system: HS 578T breast
[47] = system: HOP-92 NSCLC
[48] = system: MDA-MB-435
[49] = system: MCF7 breast
[50] = system: OVCAR-8 ovarian
[51] = system: SK-MEL-2 melanoma
[52] = system: K-562 leukemia
[53] = system: IGROV1 ovarian
[54] = system: OVCAR-3 ovarian
[55] = system: HL-60(TB) leukemia
[56] = system: PC-3 prostate

`Cc1cc(C(=O)Nc2cc(Nc3ncccc3-c3ncnc4nc[nH]c34)ccc2F)cc(C(C)(C)C#N)c1` was tested. Which GI50 [1] did it give?
The GI50 was 3.45 µM.

And the TGI [1]?
The TGI was greater than 100 µM.

And the GI50 [2]?
Its GI50 is 3.77 µM.

And the TGI [2]?
The TGI was greater than 100 µM.

And the GI50 [3]?
Its GI50 is 4.31 µM.

And the TGI [3]?
The TGI was greater than 100 µM.

What about the GI50 [4] of the same compound?
The GI50 was 1.99 µM.

What about the TGI [4] of the same compound?
Its TGI is 45.3 µM.

And the GI50 [5]?
Its GI50 is 0.0414 µM.

What about the TGI [5] of the same compound?
Its TGI is 0.338 µM.

What about the GI50 [6] of the same compound?
Its GI50 is 0.0388 µM.

What about the TGI [6] of the same compound?
Its TGI is 1.12 µM.

And the GI50 [7]?
The GI50 was 0.379 µM.

And the TGI [7]?
The TGI was greater than 100 µM.

What about the GI50 [8] of the same compound?
The GI50 was 5.33 µM.

What about the TGI [8] of the same compound?
The TGI was greater than 100 µM.

What about the GI50 [9] of the same compound?
Its GI50 is 0.0402 µM.

What about the TGI [9] of the same compound?
Its TGI is greater than 100 µM.

And the GI50 [10]?
The GI50 was 0.951 µM.

And the TGI [10]?
The TGI was greater than 100 µM.

And the GI50 [11]?
Its GI50 is 0.0526 µM.

And the TGI [11]?
The TGI was greater than 100 µM.

What about the GI50 [12] of the same compound?
Its GI50 is 0.649 µM.

What about the TGI [12] of the same compound?
The TGI was greater than 100 µM.

And the GI50 [13]?
The GI50 was 1.91 µM.

And the TGI [13]?
The TGI was greater than 100 µM.

What about the GI50 [14] of the same compound?
The GI50 was 4.07 µM.

And the TGI [14]?
The TGI was greater than 100 µM.

What about the GI50 [15] of the same compound?
Its GI50 is 0.151 µM.

And the TGI [15]?
The TGI was greater than 41.9 µM.

And the GI50 [16]?
Its GI50 is 2.9 µM.

What about the TGI [16] of the same compound?
Its TGI is greater than 100 µM.

What about the GI50 [17] of the same compound?
Its GI50 is 4.82 µM.

What about the TGI [17] of the same compound?
Its TGI is 42 µM.

What about the GI50 [18] of the same compound?
The GI50 was 4.45 µM.

What about the TGI [18] of the same compound?
Its TGI is greater than 100 µM.

What about the GI50 [19] of the same compound?
The GI50 was 2.97 µM.

What about the TGI [19] of the same compound?
The TGI was greater than 100 µM.

And the GI50 [20]?
The GI50 was 1.98 µM.

And the TGI [20]?
The TGI was greater than 100 µM.

And the GI50 [21]?
Its GI50 is 1.22 µM.

And the TGI [21]?
Its TGI is greater than 100 µM.

And the GI50 [22]?
The GI50 was 3.47 µM.

What about the TGI [22] of the same compound?
The TGI was greater than 100 µM.

What about the GI50 [23] of the same compound?
Its GI50 is 2.01 µM.

What about the TGI [23] of the same compound?
Its TGI is 53.5 µM.

And the GI50 [24]?
Its GI50 is 0.0739 µM.

What about the TGI [24] of the same compound?
Its TGI is greater than 100 µM.

And the GI50 [25]?
The GI50 was 0.461 µM.

What about the TGI [25] of the same compound?
The TGI was greater than 100 µM.

And the GI50 [26]?
Its GI50 is 0.527 µM.

And the TGI [26]?
The TGI was greater than 100 µM.

And the GI50 [27]?
Its GI50 is 13.9 µM.

What about the TGI [27] of the same compound?
The TGI was greater than 100 µM.

What about the GI50 [28] of the same compound?
The GI50 was 0.0748 µM.

And the TGI [28]?
Its TGI is 0.491 µM.

And the GI50 [29]?
The GI50 was 6.2 µM.

And the TGI [29]?
The TGI was greater than 100 µM.

And the GI50 [30]?
Its GI50 is 0.239 µM.

What about the TGI [30] of the same compound?
Its TGI is greater than 100 µM.

And the GI50 [31]?
Its GI50 is 4.03 µM.

And the TGI [31]?
Its TGI is greater than 100 µM.

And the GI50 [32]?
Its GI50 is 1.38 µM.

And the TGI [32]?
The TGI was 13.7 µM.

And the GI50 [33]?
The GI50 was 7.85 µM.

What about the TGI [33] of the same compound?
Its TGI is greater than 100 µM.

What about the GI50 [34] of the same compound?
The GI50 was 26 µM.

And the TGI [34]?
Its TGI is greater than 100 µM.

What about the GI50 [35] of the same compound?
The GI50 was 0.211 µM.

And the TGI [35]?
The TGI was greater than 100 µM.

And the GI50 [36]?
Its GI50 is 0.0867 µM.

What about the TGI [36] of the same compound?
The TGI was greater than 100 µM.

What about the GI50 [37] of the same compound?
The GI50 was 1.19 µM.

And the TGI [37]?
Its TGI is greater than 63.8 µM.

And the GI50 [38]?
Its GI50 is 3.74 µM.

And the TGI [38]?
Its TGI is greater than 100 µM.

What about the GI50 [39] of the same compound?
The GI50 was 2.95 µM.

What about the TGI [39] of the same compound?
The TGI was greater than 100 µM.

And the GI50 [40]?
Its GI50 is 0.415 µM.

And the TGI [40]?
Its TGI is greater than 78.9 µM.

What about the GI50 [41] of the same compound?
Its GI50 is 2.59 µM.

And the TGI [41]?
Its TGI is greater than 91.7 µM.

And the GI50 [42]?
The GI50 was 2.81 µM.

What about the TGI [42] of the same compound?
Its TGI is greater than 100 µM.

What about the GI50 [43] of the same compound?
Its GI50 is 3.54 µM.

What about the TGI [43] of the same compound?
The TGI was greater than 100 µM.

And the GI50 [44]?
The GI50 was 8.92 µM.

What about the TGI [44] of the same compound?
Its TGI is greater than 100 µM.

And the GI50 [45]?
The GI50 was 0.123 µM.

What about the TGI [45] of the same compound?
Its TGI is 5.36 µM.

And the GI50 [46]?
The GI50 was 1.92 µM.

And the TGI [46]?
The TGI was greater than 100 µM.

And the GI50 [47]?
Its GI50 is 0.145 µM.

What about the TGI [47] of the same compound?
Its TGI is 1.45 µM.

What about the GI50 [48] of the same compound?
Its GI50 is 0.182 µM.

And the TGI [48]?
The TGI was greater than 100 µM.

What about the GI50 [49] of the same compound?
The GI50 was 5.07 µM.

What about the TGI [49] of the same compound?
The TGI was greater than 100 µM.

What about the GI50 [50] of the same compound?
The GI50 was 3.02 µM.

And the TGI [50]?
The TGI was greater than 100 µM.

What about the GI50 [51] of the same compound?
Its GI50 is 0.0866 µM.

What about the TGI [51] of the same compound?
The TGI was 2.04 µM.

And the GI50 [52]?
The GI50 was 0.306 µM.

And the TGI [52]?
The TGI was greater than 100 µM.

And the GI50 [53]?
The GI50 was 0.694 µM.

What about the TGI [53] of the same compound?
Its TGI is greater than 100 µM.

What about the GI50 [54] of the same compound?
The GI50 was 5.99 µM.

What about the TGI [54] of the same compound?
The TGI was greater than 100 µM.

And the GI50 [55]?
The GI50 was 0.167 µM.

And the TGI [55]?
Its TGI is greater than 100 µM.

What about the GI50 [56] of the same compound?
The GI50 was 7.13 µM.

What about the TGI [56] of the same compound?
The TGI was greater than 100 µM.
